Patent US20030181449A1 (priority 2003, published 2003)

What was measured:
[1] = molecular target: T1, NMDA receptor glycine site (Rattus norvegicus, UniProt P35439); assay: Test A: Inhibition of binding of [3H]-MDL105,519 to brain membranes; details: inhibition of 1.2 nM [3H]MDL105,519 binding, brain membranes (rat or human not given)
T1 construct: The rat brain membranes used in the experiments were obtained from Analytical Biological Services Inc; tissue Analytical Biological Services Inc; host or cells: rat brain membranes (cerebral cortex and hippocampus, male Sprague Dawley rats)
From the text: Test A: Inhibition of Binding of [^3H]-MDL105,519:
Binding of compounds to the NMDA receptor glycine site may be assessed by measuring the ability of test compounds to inhibit the binding of tritiated MDL105,519 to brain membranes bearing the receptor.
Briefly, fresh brain tissue including cerebral cortex and hippocampus from male Sprague Dawley rats was homogenized in 0.32 M sucrose and centrifuged at low speed to separate cellular membranes from other cellular components. The membranes were then washed 3 times using deionized water, followed by treatment with 0.04% Triton X-100. Finally, membranes were washed six times in 50 mM Tris citrate buffer, pH 7.4, and frozen at −80° C. until use.
[^3H]MDL105,519 (72 Ci/mmol) was purchased from Amersham. Cold MDL105,519 was purchased from Sigma/RBI. […] On the day of the experiment, brain membranes were thawed at room temperature and suspended in 50 mM tris acetate buffer, pH 7.4 (“TAB”). Seventy-five micro grams per milliliter protein (by using the BioRad dye) were used for competition binding. The experiments were carried out using 96-well plates. […] Non specific binding was determined by using 100 μM of unlabeled MDL105,519. […] After incubation, unbound [^3H]MDL105,519 was removed by filtration onto GF/B Unifilter plates using a Packard harvester. Filters were washed four times with ice cold TAB (total of 1.2 mL buffer). The plates were dried overnight at room temperature and bound radioactivity was measured on a Packard TopCount after the addition of 45 μL per well of the MICROSCINT O.
Human Brain Membranes: Human brain membranes were obtained from Analytical Biological Services Inc., and assays were performed as described for rat membranes.
Data analysis: Data was analyzed using a Microsoft Excel spreadsheet and GraphPad Prizm software and potency of compounds is expressed as the Ki (nM).

[2] = tested on: formalin-induced nociceptive behaviors in rats; assay: Test B: Formalin test (formalin-induced paw flinches); type: in vivo, rat; details: dose 200 (unit not given), dosed three hours prior to formalin
From the text: The Formalin test is an assay that assesses the capacity of a compound to inhibit formalin-induced nociceptive behaviors in rats (D. Dubuisson, et al., Pain 4, 161-174 (1977); H. Wheeler-Aceto et al., Psychopharmacology 104, 3544 (1991); T. J. Coderre, et al., Pain 54, 43-50 (1993)). In the test, two distinctive phases of formalin-induced behaviors are observed. A first phase response, caused by acute nociception to the noxious chemical (formalin) injected into the paw, occurs between zero and five minutes. A quiescent period of 5 to 15 min post injection follows. After the quiescent period a second phase response, caused by sensitization of the central neurons in the dorsal horn, occurs after 15 minutes and lasts up to 60 minutes. Sensitization of the central neurons in the spine augments a noxious afferent input and causes a stronger pain barrage to be transmitted to the brain. Therefore, inhibition of the second phase response indicates a central mechanism of drug action.
The procedure for the formalin test is as follows: male rats are placed in a plexiglass chamber and observed for 30-45 min. to observe their baseline activity. Animals are either pretreated with vehicle or with different doses of a test compound. Animals are dosed with vehicle or test compound three hours prior to injection of 0.05 mL of sterile 1% formalin under the dorsal skin of a hind paw. The number of paw flinches (responses) during the first phase (0-5 min.) and the second phase (20-35 min.) are scored and recorded. Flinch response is compared with the mean score of a saline control group and calculated as percentage inhibition. The ED50 is the dose of compound which produces 50% inhibition of nociceptive response in the first or second phase response. First phase responses may be inhibited by compounds that act peripherally and by compounds that act centrally. Second phase response are inhibited by centrally active compounds.
Student's t-test was used for statistical analysis to determine the significance of compound effects. Data are reported as a dose that yielded a % inhibition of a response.

[3] = tested on: CCI rats (thermal hyperalgesia); assay: Test C: Neuropathic pain model (Chronic Constriction Injury), thermal hyperalgesia, paw withdrawal latency; type: in vivo, rat; details: oral
From the text: Test C: Neuropathic Pain Model (Chronic Constriction Injury):
The anti-hyperalgesic properties of a compound may be tested with the Chronic Constriction Injury (“CCI”) model. The test is a model for neuropathic pain associated with nerve injuries that can arise directly from trauma and compression, or indirectly from a wide range of diseases such as infection, cancer, metabolic conditions, toxins, nutritional deficiencies, immunological dysfunction, and musculoskeletal changes. In the model a unilateral peripheral hyperalgesia is produced in rats by nerve ligation (G. J. Bennett, et al., Pain 33, 87-107 (1988)).
Procedurally, Sprague-Dawley rats (250-350 g) are anesthetized with sodium pentobarbital and the common sciatic nerve is exposed at the level of the mid thigh by blunt dissection through the biceps femoris. A section of nerve (about 7 mm), proximal to the sciatic trifucation, is freed of tissue and ligated at four positions with chromic gut suture. The suture is tied with about 1 mm spacing between ligatures. The incision is closed in layers and the animals are allowed to recuperate. Thermal hyperalgesia is measured using a paw-withdrawal test (K. Hargreaves, et al., Pain 32, 77-88 (1988)). To perform the test, animals are habituated on an elevated glass floor. A radiant heat source is aimed at the mid-plantar hindpaw (sciatic nerve territory) through the glass floor with a 20 second cut-off used to prevent injury to the skin. The latencies for the withdrawal reflex in both hind paws are recorded.
Injured paws with ligated nerves show shorter paw withdrawal latencies compared to the uninjured or sham operated paws. Responses to test compounds are evaluated at different times after oral administration to determine the onset and duration of compound effect. When performing the test, groups of CCI rats receive either vehicle or the test compound orally three times daily for 5 days. Paw withdrawal latencies are measured each day 10 min before and 2 or 3 hr. after the first daily dose. Compound efficacy is expressed as mean percentage decrease of hyperalgesia compared to that of vehicle-treated animals, calculated as follows:
(Mean of vehicle group−Mean of compound group)×100/(Mean of vehicle group).
Data analysis was performed by the multiple means comparison test (Dunnett's test) and results are expressed and compound potencies are expressed as the MED (minimum effective dose), in mg/Kg/day, that yields a percent (%) decrease in hyperalgesia that is statistically significant.

melting point: 187 to 189 °C | Ki [1]: 39.9 nM
Structure (SMILES): Cc1cc(C)c(-n2nc(O)c3[nH]c4cc(Cl)ccc4c(=O)c3c2=O)c(C)c1 [Ex. 1, 7-Chloro-4-hydroxy-2-(2,4,6-trimethylphenyl)-1,2,5,10-tetrahydropyridazino[4,5-b]quinoline-1,10-dione]
Test B First phase Dose (% Inh.): % inhibition of nociceptive response ([2]; first phase (0-5 min)): 200 (43%) | Test B Second phase Dose (% Inh.): % inhibition of nociceptive response ([2]; second phase (20-35 min)): 200 (54%) | Test C (% Inh.): percent decrease in hyperalgesia ([3]; at the MED): 82% | Test C MED (minimum effective dose) ([3]; three times daily for 5 days): 15 mg/kg/day
